This is an account of results in article PMC5593639, “NSC30049 inhibits Chk1 pathway in 5-FU-resistant CRC bulk and stem cell populations” (Oncotarget, 2017).

By IC50 is commonly meant the concentration needed to halve the response being measured.

In one data set the test system is SW480 cells. The data set can be described thus: Cell survival (MTT assay), SW480. The note with it: Homo sapiens, drug alone, 48 h. In kind it is cell-based. As for the experimental part:
(§1) The survival of cells was determined by MTT (3-(4,5-Dimethylthiazol-2yl-)-2,5-diphenyl tetrazolium bromide) assay (ATCC, Manassas, VA, USA). In principle, the viable cell number is directly proportional to the purple formazan color of the reduced MTT dye, which can be quantitatively measured by spectrophotometry. Briefly, 1,500 cells were plated in quadruplets in 96-well flat-bottom tissue culture plates. After treatment with compounds for certain periods as described in respective figure legends, 10 μl of MTT reagent was added to each well and incubated at 37°C for 4 h to allow the formation of purple color crystals of formazan. In total, 100 μl of detergent solution was added to each well, and the reaction mixture was incubated in dark for 2–4 h at room temperature. The developed color density was then measured spectrophotometrically at 570 nm using the POLARstar Omega micro-plate reader (BMG Labtech, Inc., Cary, NC, USA).

The subject of a further data set is CA2 CRC stem cell line. As to the kind of experiment: Spheroid (sphere) formation assay. In kind it is cell-based. The note with it: Homo sapiens; drug alone, seventh day. The protocol: Live CA2 cells (100) were seeded in 384-well ultra-low attachment plates. Next, day cells were treated with different concentrations of NSC49L and 5-FU either alone or in combination. Cells were incubated for 7 days and the number of spheroids were counted in control and treated groups under an Olympus inverted microscope with a 10× magnification.

The next data set has as its system HCT-116 cells. As to the kind of experiment: Cell survival (MTT assay), HCT-116. In kind it is cell-based, human. The note with it: Homo sapiens, HCT-116, 48 h. As for the experimental part: as §1
The next data set relates to RKO cells. The data set can be described thus: Cell survival (MTT assay), RKO. In kind it is cell-based. The note with it: Homo sapiens, drug alone, 48 h. As for the experimental part: as §1
In general terms: Tetrazolium assays rely on reduction of a dye to a coloured formazan, in cell work by metabolically active cells.

The subject of the next data set is HCT116(p53+/+) cells. As to the kind of experiment: MTT assay, IC50 of HU, HCT116(p53+/+). In kind it is cell-based, human. The note with it: HU combined with NSC49L, 72 h. The protocol:
as §1

Data set [1] relates to FOLFOX-resistant-HCT116 cells. As to the kind of experiment: Cell survival (MTT assay), FOLFOX-resistant-HCT116. In kind it is cell-based. The note with it: Homo sapiens, FOLFOX-resistant HCT-116, 48 h. As for the experimental part:
(§2) In some experiments, 5-FU, leucovorin and oxaliplatin (FOLFOX)-resistant-HCT-116 and FOLFOX-resistant-HT29 cells were used. These cells were obtained from Dr. Adhip P. Majumdar (John D. Dingell VA Medical Center, Detroit, MI). These cells were generated by exposure to clinically relevant doses and schedules. The exposing schedule was for 12 cycles; each cycle lasted for one week. Briefly, the cells were first exposed to FOLFOX (25 μM 5-FU and 0.625 μM oxaliplatin) for 72 hours. The surviving cells were then cultured in normal medium without the drugs for 4 to 5 days. This cycle was repeated 12 times. The surviving cells were then split and exposed to higher doses of FOLFOX (50 μM 5-FU + 1.25 μM oxaliplatin or 100 μM 5-FU + 2.5 μM oxaliplatin) for 2 to 3 days per week for approximately 4 weeks. […]
(§3) The survival of cells was determined by MTT (3-(4,5-Dimethylthiazol-2yl-)-2,5-diphenyl tetrazolium bromide) assay (ATCC, Manassas, VA, USA). In principle, the viable cell number is directly proportional to the purple formazan color of the reduced MTT dye, which can be quantitatively measured by spectrophotometry. […] The developed color density was then measured spectrophotometrically at 570 nm using the POLARstar Omega micro-plate reader (BMG Labtech, Inc., Cary, NC, USA).

The nature of data set [2]: Maximum tolerated dose and pathological analysis of organs. In kind it is in vivo, male SCID mice. The protocol:
We have determined the MTD of NSC49L from male homozygous CB17 scid/scid (SCID) mice obtained from Tacomic Farms (Germantown, NY, USA). The mice were treated subcutaneously at 25, 50, and 75 mg/kg body weight for 5 consecutive days followed by observation for an additional 7 days. Every day body weight was recorded and behavioral changes were monitored in the treated versus control animals. After the 7th day animals were sacrificed and the organs from the mice treated at 75 mg/kg body weight were processed for pathological examination. Different organs were fixed in 10% buffered formalin, then sectioned and processed into paraffin blocks. Tissue sections were cut 4–5 μm thick and stained with hematoxylin and eosin. Histologic differences between control (A) and treated (B) mice were recorded and photomicrographs were taken with Olympus, BX41 microscope with attached camera.

Data set [3] deals with FOLFOX-resistant-HT29 cells. As to the kind of experiment: Cell survival (MTT assay), FOLFOX-resistant-HT29. In kind it is cell-based. The note with it: Homo sapiens, FOLFOX-resistant HT-29, 48 h. As for the experimental part: as §2, §3
The subject of data set [4] is HCoEpiC normal colonic epithelial cell line. As to the kind of experiment: Cell survival (MTT assay), HCoEpiC. In kind it is cell-based. The note with it: Homo sapiens, drug alone, 48 h. The protocol:
as §1

The test system of data set [5] is γH2AX(S139P)-foci in HCT-116 cells. As to the kind of experiment: γH2AX(S139P)-foci IHC staining, HCT-116. The note with it: 24 h. In kind it is cell-based, human.
For data set [6], the system named is γH2AX(S139P)-foci in CA2 cells. As to the kind of experiment: γH2AX(S139P)-foci IHC staining, CA2. The note with it: 24 h. In kind it is cell-based, human.
In the next data set the test system is HCT116(p53−/−) cells. The data set can be described thus: MTT assay, IC50 of HU, HCT116(p53−/−). The note with it: HU combined with NSC49L, 72 h. In kind it is cell-based, human. The protocol:
as §1

For data set [7], the system named is Chk1 phosphorylation in HT29 cells. As to the kind of experiment: Western blot of total and phosphorylated Chk1, HT29. In kind it is cell-based, human. The protocol: (§4) The levels of various proteins were determined by Western blot analysis with our previously described procedure. The antibodies for phospho-Chk1(Ser317), phospho-Chk1(Ser317), phospho-Chk1(Ser319), phospho-Chk1(Ser345), Chk1, and GAPDH were purchased from Cell Signaling Technology (Danvers, MA, USA).

Data set [8] concerns Chk1 phosphorylation in HCT-116 cells. As to the kind of experiment: Western blot of total and phosphorylated Chk1, HCT-116. In kind it is cell-based, human. The note with it: NSC49L alone, 24 h. As for the experimental part: as §4
The mark [9] stands for this setting: NSC49L in combination with 5-FU.
[10] abbreviates: 2 mM HU 24 h, then NSC49L 5, 10, 20 μM additional 8 h.

Regarding `ClC/C=C/C[N+]12CN3CN(CN(C3)C1)C2` [NSC49L], the IC50 in the data set with SW480 cells is 4.4 ± 0.2 µM; with CA2 CRC stem cell line, 4.8 µM; with HCT-116 cells (MTT assay, Figure 1B, three experiments) it was 3.9 µM; with HCT-116 cells (drug alone, MTT, Table 1, four estimations), 2.8 ± 0.5 µM; in the data set on RKO cells, 4.9 ± 0.4 µM; in [1], 5.4 µM. Further, the figures for the IC50 in data set [3] and in data set [4] were 3.1 µM and 31.9 ± 0.9 µM, respectively. The “IC50 of HU” value in the data set on HCT116(p53+/+) cells and with HCT116(p53−/−) cells was “further decreased” in each case. The “Histologic sections of organs” value in data set [2] (75 mg/kg body weight, bone marrow, brain, kidney, liver, lung, pancreas) was “no significant differences between control and treated mice”. The “Body weight, behavior, pathological abnormalities” value in [2] (25, 50 and 75 mg/kg body weight, 5 consecutive days, 7 days observation, treated versus control) was “no change in body weight, behavior, or pathological abnormalities”. Also, the “γH2AX(S139P)-foci” value in data set [5] (NSC49L alone) was “increased”; in data set [5] (setting [9]), “further increased”; in [6] (NSC49L alone), “increased”; in data set [6] (setting [9]) it was “further increased”. Also, the “Chk1(S296P) levels” value in data set [7] (setting [10]) was “increased at low concentrations of NSC49L (5 μM), but decreased at 10 and 20 μM concentrations”. Also, the “Chk1(S317P) level” value in data set [7] (setting [10]) is recorded as “decreased in a dose-dependent manner”. Moreover, in data set [7] (2 mM HU 24 h, then NSC49L additional 8 h), the “Chk1(S345P) level” value was “increased above the HU treatment level in a dose-dependent manner”. Further, the Chk1 phosphorylation entry in data set [7] (NSC49L alone, 8 h) is on record as “did not show any significant effect”. In data set [8], the “Chk1(S317P) and Chk1(S296P) levels” value is on record as “no effect”. Moreover, the “Chk1(S345P) levels” value in data set [8] is listed as “dose-dependent increase”.
